Data on 1 molecule can be found in patent US9572812B2, “Compositions and methods involving polymer, solvent, and high viscosity liquid carrier material” (DURECT CORPORATION, priority 2013, dated 2017).

A short description of data set [1]: Density and viscosity of placebo vehicle and formulation. Format: physicochemical. An excerpt: Formulation No. R66 consisted of SAIB/NMP/PLGA/RSP in the following weight proportion: 45.5/27.3/18.2/9.0. Formulation No. R131 consisted of SAIB/PC/PLGA/RSP in the following weight proportions 40.0/33.7/17.3/9.0. It should be noted that Formulation Nos. […] and […] were formulated to yield approximately the same viscosity (see below Table). However, to achieve similar viscosities, more PC must be added to the vehicle, with a corresponding decrease in SAIB (and a minor decrease in PLGA). [table] The difference in the above-noted settling versus the difference in vehicle density is notable. As shown in the first Table of this Example, the viscosity of the placebo vehicle for Formulation No. R66 at 5° C. is slightly higher than the viscosity of the placebo vehicle for Formulation No. R131 at 5° C. […] R131

Data set [2] can be described thus: Risperidone solubility in vehicle / solvent. Format: physicochemical. The settings on record: NMP versus PC.

As to `Cc1nc2n(c(=O)c1CCN1CCC(c3noc4cc(F)ccc34)CC1)CCCC2` [risperidone], the density of risperidone in data set [1] is recorded as 1.30 g/mL. Moreover, the “risperidone solubility in solvents” value in data set [2] is given as “higher solubility in NMP than in PC”.
